In patent publication US20240317683A1, “METHODS OF TREATING MOOD DISORDERS” (priority 2020, published 2024):
Like-named read-outs stand apart in the source and are kept apart here.

Tests used:
[1] = Metabolic stability in mouse liver microsomes (MLM); assay type: in vitro ADME, CD-1 mice; conditions: CD-1, mouse, pooled mouse liver microsomes, pH 7.4, NADPH
Procedure: (§1) MLM Stability. Pooled MLM from CD-1 mice (BIOIVT M00501) were used. Microsomal incubations were carried out in multi-well plates. […] Control incubations were performed by replacing the NADPH-cofactor system with PBS. Test compounds (1 μM, final solvent concentration 1.0%) were incubated with microsomes at 37° C. with constant shaking. Six time points over 60 minutes were analyzed, with 60 μL aliquots of the reaction mixture being drawn at each time point.

5-HT1A = 5-HT1A (Homo sapiens (Human), UniProt P08908); assay: FLIPR Ca2+ flux agonist assay, 5-HT1A; assay type: cell-based
Procedure: (§2) A solution of 250 mM probenecid in 1 mL FLIPR assay buffer was prepared fresh. This was combined with a fluorescent dye (Fluo-4 Direct™) to make a final assay concentration of 2.5 mM. […] The fluorescent dye was then added to the assay plate along with assay buffer to a final volume of 40 μL. The cell plate was incubated for 50 min at 37° C. and 5% CO2 and placed into the FLIPR Tetra along with the compound plate. 10 μL of references and compounds were then transferred from the compound plate into the cell plate and the fluorescent signal was read.

[2] = Metabolic stability in human liver microsomes (HLM); assay type: in vitro ADME; conditions: both sexes, pooled human liver microsomes, pH 7.4, NADPH
Procedure: as §1, with “HLM” for “MLM”, “adult male and female donors (Corning 452117)” for “CD-1 mice (BIOIVT M00501)”

[3] = Pharmacokinetics in mice, plasma; assay type: in vivo, C57BL/6 mice; conditions: 10 mg/kg
Procedure: Animals. Male C57BL/6 mice, aged 8-12 weeks, were used in these studies. Four mice were housed in each cage. Temperature and humidity were maintained at 22±3° C. and 30-70%, respectively, and illumination was controlled to give a 12 h light and 12 h dark cycle. Temperature and humidity were recorded by an auto-controlled data logger system. All animals were provided laboratory rodent diet. Reverse osmosis water treated with ultraviolet light was provided ad libitum. Animals were randomly assigned to treatment groups.
Drugs. Compounds 4 and 5 were prepared as described above. All other compounds were commercially obtained. Test compounds were used as the hydrogen fumarate (1 and 2) or hydrochloride (3, 4, and 5) salts and were dissolved in a vehicle consisting of normal saline. They were then administered intravenously (IV) via the tail vein, subcutaneously (SC), or orally (PO) via gavage at a dose of 1 or 10 mg/kg (calculated based on the free base) and at a volume of 5 ml/kg body weight.
Sample Collection and Bioanalysis. Blood samples (approximately 60 μL) were collected under light isoflurane anesthesia (Surgivet®) from the retro orbital plexus at 0.08, 0.25, 0.5, 1, 2, 4, 8, and 24 h (4 animals per time point). Immediately after blood collection, plasma was harvested by centrifugation at 4,000 rpm for 10 min at 4° C. and samples were stored at −70±10° C. until bioanalysis. Following blood collection, animals were immediately sacrificed, the abdominal vena-cava was cut open, and the whole body was perfused from the heart using 10 mL of normal saline, and brain samples were collected from all animals. After isolation, brain samples were rinsed three times in ice-cold normal saline (for 5-10 seconds/rinse using ˜5-10 mL normal saline in disposable petri dish for each rinse) and dried on blotting paper. Brain samples were homogenized using ice-cold phosphate-buffered saline (pH 7.4). Total homogenate volume was three times the tissue weight. All homogenates were stored at −70±10° C. until bioanalysis. For bioanalysis, 25 μL aliquots of plasma/brain study samples or spiked plasma/brain calibration standards were added to individual pre-labeled micro-centrifuge tubes followed by 100 μL of an internal standard solution (glipizide, 500 ng/ml in acetonitrile) except for blanks, where 100 μL of acetonitrile was added. Samples were vortexed for 5 minutes and then centrifuged for 10 minutes at 4,000 rpm at 4° C. Following centrifugation, 100 μL of each clear supernatant was transferred to a 96 well plate and analyzed with a fit-for-purpose LC-MS/MS method, with authentic samples of each analyte used for calibration and identification.
Data Analysis. Pharmacokinetic parameters were estimated using the non-compartmental analysis tool of Phoenix® WinNonlin software (Ver 8.0).

5-HT2B = 5-HT2B (Homo sapiens (Human), UniProt P41595); assay: FLIPR Ca2+ flux agonist assay, 5-HT2B; assay type: cell-based
Sequence of 5-HT2B (P41595 whole entry, looked up, species assumed): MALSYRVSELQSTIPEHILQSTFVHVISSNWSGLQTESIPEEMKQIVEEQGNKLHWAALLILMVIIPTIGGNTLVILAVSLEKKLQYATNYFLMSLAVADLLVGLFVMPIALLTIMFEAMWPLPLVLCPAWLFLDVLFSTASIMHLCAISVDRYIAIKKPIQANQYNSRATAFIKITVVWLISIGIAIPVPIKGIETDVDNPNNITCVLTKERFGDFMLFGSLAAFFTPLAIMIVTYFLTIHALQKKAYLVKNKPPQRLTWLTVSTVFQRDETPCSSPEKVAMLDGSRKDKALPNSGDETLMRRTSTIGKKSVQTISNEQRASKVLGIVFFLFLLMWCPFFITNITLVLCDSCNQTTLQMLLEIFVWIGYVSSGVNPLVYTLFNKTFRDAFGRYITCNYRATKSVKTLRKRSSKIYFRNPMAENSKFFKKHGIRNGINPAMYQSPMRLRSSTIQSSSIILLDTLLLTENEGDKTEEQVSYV
Procedure: as §2

[4] = Stability in mouse brain homogenate; assay type: in vitro ADME, CD-1 mice
Procedure: Mouse Brain Homogenate Stability. Frozen mouse brain homogenate (pooled from male CD-1 mice, BioreclamationIVT, MSE00BRAINMZA) was thawed in a water bath at 37° C. immediately prior to use. Positive controls and test compounds (final concentration in incubation medium=1 μM for test compounds and 2 μM for controls, all with 2% DMSO) were incubated in duplicate for each time point (0, 10, 30, 60, and 120 min) in the mouse brain homogenate at a total reaction volume of […] at 37° C. At the end of each incubation period, reactions were immediately quenched with 400 μL of acetonitrile containing internal standard (200 ng/mL tolbutamine and 200 ng/ml labetalol) and mixed thoroughly. Plates were then sealed, shaken for 20 min, and centrifuged at 4,000 rpm and 4° C. for 20 min. Aliquots of 50 μL of each supernatant were diluted into 100 μL of water and the mixtures were then shaken again for 10 min.

5-HT2A = 5-HT2A (Homo sapiens (Human), UniProt P28223); assay: FLIPR Ca2+ flux agonist assay, 5-HT2A; assay type: cell-based; conditions: HEK293
Procedure: as §2

[5] = male, C57BL/6, mouse plasma, IV
[6] = male, C57BL/6, mouse plasma, oral

Work on CCCN(CC)CCc1c[nH]c2ccccc12 [Compound 1, ethylpropyltryptamine] yielded a half-life at 1 μM [1] of 6 min, a microsomal CLint at 1 μM [1] of 231 µL/min/mg and an EC50 (5-HT1A) of 88700 nM. For the same molecule, the “5-HT1A % Act @ Max Dose” value (5-HT1A; Ca2+ flux, CHO cells) was 75.5%, the half-life at 1 μM [2] was 21.7 min and the microsomal CLint at 1 μM [2] was 64.3 µL/min/mg. It also gave an AUC(0-t) [3, 5] of 844 ng·h/mL, a clearance [3, 5] of 197 mL/min/kg and a half-life [3, 5] of 114 min. The Cmax ([3]; male, C57BL/6, mouse plasma, IV, read-out: Cmax (C0 back-extrapolated to t = 0)) was 3820 ng/mL, the AUC(0-t) [3, 6] was 22.1 ng·h/mL and the Tmax [3, 6] was 4.8 min. The half-life [3, 6] was 113 min, the Cmax ([3]; male, C57BL/6, mouse plasma, oral, read-out: Cmax) was 20.3 ng/mL and the F ([3]; mouse, oral, based on plasma AUC0-last) was 2.6%. The EC50 (5-HT2B) was 40.3 nM, the “5-HT2B % Act @ Max Dose” value (5-HT2B; Ca2+ flux, HEK293) was 80.4% and the “stability in mouse brain homogenate (in words)” value [4] was “high stability”. The half-life at 1 μM ([4]; male, CD-1, mouse brain homogenate, 1 μM, 37° C.) was over 289 min, the “% Compound Remaining (after 120 min)” value ([4]; mouse brain homogenate, 1 μM, 37° C.) was 113.8% and the EC50 (5-HT2A) was 30.5 nM.
